The subject of this assay is petunia P6.1 gene (and endogenous tobacco T2.1 gene). The experiment in a line: RNAse protection analysis of petunia P6.1 gene expression in transgenic tobacco roots and callus. The class given is in vivo, tobacco (SR1). As for the experimental part:
Tobacco (SR1) was used as the recipient for transformation. In vitro grown leaf material was sliced into strips using a scalpel. The strips were dipped into Agrobacterium tumefaciens containing the construct P627 (bacterial concentration was 0.2 A550). Leaf pieces were placed on media containing MS major salts, MS minor salts, B5 vitamins, MS iron, 3% sucrose, 0.1 μg/l NAA, […], 0.7% TC agar, pH 5.8 and incubated for 2-3 days under growlights. Leaf material was removed and washed by placing in liquid culture medium containing […] and rotating gently for 3-4 hours. The leaf pieces were then placed on medium containing 100 μg/l carbinicillin and 300 mg/l kanamycin and transferred every 2 weeks. Shoots appeared after 2-8 weeks and were transferred to rooting medium (0.5× MS major salts, MS minor salts, iron, 1% sucrose, 0.8% agar, and 2 μM indolebutyric acid). Eight independent transformed plants were regenerated. […]
The inducibility of the P6.1 gene was also examined in callus tissue derived from transformed tobacco plants. […] The inducibility of both the introduced petunia P6 gene and the endogenous tobacco T2.1 gene by N-(aminocarbonyl)-2-chlorobenzanesulfonamide treatment was evaluated using the RNAse protection analysis as described above. […]

As to `NC(=O)NS(=O)(=O)c1ccccc1Cl`, the “expression of petunia P6 gene and endogenous tobacco T2.1 gene in callus (RNAse protection)” value (callus from transformed tobacco, 100 mg/l, 6 and 20 hours) is “strong expression of both genes was observed”. Further, for the setting “transgenic tobacco (P627), hydroponic 200 mg/l, six hours”, the “inducible expression of the transferred petunia P6.1 gene in roots (RNAse protection)” value is recorded as “All eight transformants demonstrated inducible expression”.
